Structures are written as SMILES.

Common to all, as to assay type: in vivo
The test system of one data set is ANGPTL7 KO mice. Kind of data set: DEX-Ac-induced ocular hypertension in ANGPTL7 KO mice (IOP measurement). The following applies: weekly periocular CF injections of DEX-Ac in both eyes, versus vehicle-treated, week 1 to week 6. An excerpt:
(§1) IOP measurements of DEX-Ac-treated (n=18) versus vehicle-treated (n=6) mice show IOP elevation from week 1 to 6; **p<0.01, ***p<0.001, ****p<0.0001.

In the next data set the test system is ANGPTL7. Kind of data set: ANGPTL7 siRNA in DEX-Ac-induced ocular hypertension (steroid-induced IOP) in wild-type mice. Conditions: WT mice; weekly periocular CF injections of DEX-Ac to both eyes; compared with vehicle-treated mice; starting 6-days post-injection. An excerpt:
dsRNA were further assessed for their ability to reduce steroid induced IOP in vivo in wild-type mice. […] Mice were divided into following groups as shown in FIG. 4: a) Vehicle (n=4), b) Vehicle+PBS (n=6), c) DEX-Ac (n=12), d) DEX-Ac+siRNA #3 (n=14), and e) DEX-Ac+siRNA #5 (n=14). […] At Day 22, siRNA targeting ANGPTL7 (#3 and #5) were intravitreally injected into groups: d and e (DEX-Ac+siRNA #3 and DEX-Ac+siRNA #5) and IOP measurements continued to be recorded.

A further data set concerns ANGPTL7 WT mice. Kind of data set: DEX-Ac-induced ocular hypertension in ANGPTL7 WT mice (IOP measurement). Conditions: weekly periocular CF injections of DEX-Ac in both eyes, versus vehicle-treated, week 1 to 6.
Text: as §1

In the case of `CC(=O)OCC(=O)[C@@]1(O)[C@H](C)C[C@H]2[C@@H]3CCC4=CC(=O)C=C[C@]4(C)[C@@]3(F)[C@@H](O)C[C@@]21C` [DEX-Ac, dexamethasone-21-acetate], the IOP elevation entry in the data set with ANGPTL7 KO mice is “did not elevate IOP”; in the data set with ANGPTL7, “rapid and significantly higher”; with ANGPTL7 WT mice, “significantly elevated IOP”.

(Values after patent publication US11865134B2, “Treatment of inflammation with glucocorticoids and angiopoietin-like 7 (ANGPTL7) inhibitors” (Regeneron Pharmaceuticals, Inc., priority 2021, dated 2024).)
